In PubChem BioAssay (NCI) one finds GI50 and TGI data, which are given here for 14 molecules.

In brackets after ≈: the same amount, converted by molar mass.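 Each compound was tested at five concentrations against cells in 96-well plates for 48 hours. At the GI50, growth is halved. TGI marks complete inhibition of growth.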

Some test systems named below: SK-MEL-28 melanoma; MDA-MB-231 breast; DU-145 prostate; KM12 colon; KM20L2 colon; HOP-18 NSCLC; LOX IMVI melanoma; SK-OV-3 ovarian; DLD-1 colon; SW-620 colon; U251 CNS; SNB-75 CNS; UACC-62 melanoma; CCRF-CEM leukemia; UACC-257 melanoma; MDA-N.
Experiment in all cases: inhibition of tumour cell growth, NCI panel, 48 h

For `Cc1nc2nc(C)n(CCN3CCOCC3)c(=O)c2c(-c2cccc([N+](=O)[O-])c2)c1C(=O)CCCCCCCCCCN1CCC(c2ccccc2)(c2ccccc2)CC1`, the GI50 in the assay on SK-MEL-28 melanoma was 2.26 µg/mL (≈ 2.78 µM); in the assay with MDA-MB-231 breast it was 1.68 µg/mL (≈ 2.07 µM); in the assay on DU-145 prostate, 2.51 µg/mL (≈ 3.09 µM); in the assay on KM12 colon it was 2.43 µg/mL (≈ 2.99 µM). Moreover, the TGI with SK-MEL-28 melanoma came to 4.34 µg/mL; with MDA-MB-231 breast it was 3.53 µg/mL; in the assay with DU-145 prostate, 4.56 µg/mL; in the assay with KM12 colon, 4.46 µg/mL.

`Cc1cc(=O)oc2c1cc1ccc3cccc4ccc2c1c34`: the TGI in the assay on KM20L2 colon, in the assay with HOP-18 NSCLC, in the assay with SK-MEL-28 melanoma, in the assay on LOX IMVI melanoma, with SK-OV-3 ovarian and in the assay on DLD-1 colon was more than 100 µM each time. In addition, the TGI with SW-620 colon was more than 100 µM; in the assay with U251 CNS, more than 100 µM; in the assay with SNB-75 CNS it was 98.4 µM; in the assay on UACC-62 melanoma it was more than 100 µM; in the assay on CCRF-CEM leukemia it was more than 100 µM.

Regarding `ICC1CCCO1` (stereo unspecified), the TGI in the assay on KM20L2 colon, in the assay on HOP-18 NSCLC, in the assay with SK-MEL-28 melanoma, in the assay with LOX IMVI melanoma, in the assay on DLD-1 colon and in the assay with SW-620 colon was more than 100 µM throughout. For the same molecule, the TGI in the assay on U251 CNS, in the assay with SNB-75 CNS, in the assay with KM12 colon, in the assay on CCRF-CEM leukemia and in the assay on UACC-257 melanoma was more than 100 µM in each case.

Turning to `Cc1cc(O)c2c(c1)C(=O)c1c(c(O)cc(O)c1-c1c(O)cc(O)c3c1C(=O)c1cc(C)cc(O)c1C3=O)C2=O`, the TGI in the assay on KM20L2 colon is 52.2 µM; with HOP-18 NSCLC, 39.9 µM; in the assay with SK-MEL-28 melanoma it was 70.8 µM; with LOX IMVI melanoma, 50.2 µM; in the assay on SK-OV-3 ovarian it was 62.6 µM; with DLD-1 colon, 59.5 µM. The TGI in the assay with SW-620 colon amounted to 124 µM; in the assay with U251 CNS, 46 µM; with SNB-75 CNS, 66.1 µM; in the assay on KM12 colon, 64.2 µM; in the assay on UACC-62 melanoma, 25.4 µM; in the assay on CCRF-CEM leukemia it was 48.3 µM. Moreover, the TGI in the assay with UACC-257 melanoma came to 50 µM.

As for `CC1(C)OCC(CO)(CO)CO1`, the TGI in the assay with SK-MEL-28 melanoma, in the assay with LOX IMVI melanoma, with MDA-MB-231 breast, with SK-OV-3 ovarian, with SW-620 colon and with U251 CNS was more than 100 µM each time. The TGI in the assay on DU-145 prostate, with SNB-75 CNS, in the assay with KM12 colon, with MDA-N, in the assay with CCRF-CEM leukemia and in the assay with UACC-257 melanoma was more than 100 µM throughout.

Regarding `CCOP(=O)(C/C=C/Cn1ncc(=O)[nH]c1=O)OCC`, the TGI with SK-MEL-28 melanoma, in the assay with LOX IMVI melanoma, with MDA-MB-231 breast, with SW-620 colon, in the assay on U251 CNS and in the assay with DU-145 prostate was more than 100 µM each time. For the same molecule, the TGI in the assay on SNB-75 CNS, with KM12 colon, in the assay on MDA-N, in the assay with CCRF-CEM leukemia and in the assay with UACC-257 melanoma was more than 100 µM throughout.

For `c1ccc(C2=NN2c2ccccc2)cc1`, the TGI with SK-MEL-28 melanoma, with LOX IMVI melanoma, with MDA-MB-231 breast, with SK-OV-3 ovarian, with SW-620 colon and in the assay on U251 CNS was more than 100 µM in each case. Also, the TGI in the assay with DU-145 prostate, in the assay on SNB-75 CNS, in the assay with KM12 colon, in the assay with MDA-N, in the assay on UACC-62 melanoma and in the assay with CCRF-CEM leukemia was more than 100 µM each time. The TGI in the assay with UACC-257 melanoma was more than 100 µM.

Regarding `O=C(O)CCC(NC(=O)c1ccc(Nc2cnc3cc(C(F)(F)F)ccc3n2)cc1)C(=O)O` (stereo unspecified), the TGI in the assay with KM20L2 colon, in the assay on HOP-18 NSCLC, in the assay with SK-MEL-28 melanoma, in the assay with LOX IMVI melanoma, in the assay on SK-OV-3 ovarian and in the assay with DLD-1 colon was more than 100 µM in each case. Moreover, the TGI with SW-620 colon, in the assay with U251 CNS, with SNB-75 CNS, in the assay with KM12 colon, in the assay on UACC-62 melanoma and with CCRF-CEM leukemia was more than 100 µM each time. In addition, the TGI with UACC-257 melanoma is more than 100 µM.

With `CN1CCC2(c3ccccc3)CC(=O)/C(=C/c3ccc(Cl)c(Cl)c3)C1C2` (stereo unspecified), the TGI in the assay on SK-MEL-28 melanoma is 5.59 µM; in the assay with LOX IMVI melanoma, 3.34 µM; in the assay with MDA-MB-231 breast, 3.21 µM; in the assay with SK-OV-3 ovarian, 13.6 µM; in the assay with SW-620 colon it was more than 21.6 µM; in the assay with U251 CNS, 3.47 µM. The TGI was found to be 11.9 µM in the assay on DU-145 prostate; 11.2 µM in the assay with SNB-75 CNS; 4.14 µM in the assay on KM12 colon; 13.9 µM with MDA-N; 3 µM in the assay with UACC-62 melanoma; 5.15 µM in the assay on CCRF-CEM leukemia. Also, the TGI with UACC-257 melanoma amounted to 23.3 µM.

In the case of `C=C1CC(OC)(C(OC)C(=O)N[C@H]2OCO[C@H]3C2O[C@H](C[C@@H](COC)OC)C(C)(C)C3OC)O[C@H](C)[C@@H]1C` (stereo partly specified), the TGI is more than 47 µM in the assay on KM20L2 colon; 23.9 µM in the assay with HOP-18 NSCLC; 3.45 µM with SK-MEL-28 melanoma; more than 47 µM in the assay on LOX IMVI melanoma; 8.12 µM in the assay with SK-OV-3 ovarian; 9.33 µM with DLD-1 colon. Further, the TGI was 15 µM with SW-620 colon; 4.13 µM in the assay on U251 CNS; 9.99 µM in the assay on SNB-75 CNS; more than 47 µM in the assay with KM12 colon; 3.72 µM in the assay on UACC-62 melanoma; 1.43 µM in the assay on CCRF-CEM leukemia. Moreover, the TGI with UACC-257 melanoma is 14.7 µM.

Regarding `O=Cc1cn(CCCCCCCCn2cc(C=O)c3ccccc32)c2ccccc12`, the TGI in the assay on SK-MEL-28 melanoma, with LOX IMVI melanoma, in the assay on MDA-MB-231 breast, in the assay with SK-OV-3 ovarian, with SW-620 colon and in the assay on U251 CNS was more than 10 µM throughout. Also, the TGI in the assay with DU-145 prostate, with SNB-75 CNS, in the assay with KM12 colon, with MDA-N, in the assay with UACC-62 melanoma and in the assay on CCRF-CEM leukemia was more than 10 µM each time.

For the molecule `O=C(NN1C(=O)CS(=O)(=O)C1c1ccc(Cl)c(Cl)c1)c1ccncc1` (stereo unspecified), the TGI with KM20L2 colon, in the assay on HOP-18 NSCLC, with SK-MEL-28 melanoma, in the assay on LOX IMVI melanoma, in the assay with SK-OV-3 ovarian and in the assay with DLD-1 colon was more than 100 µM throughout. The TGI with SW-620 colon is more than 100 µM; in the assay with U251 CNS, more than 100 µM; with SNB-75 CNS it was more than 100 µM; with KM12 colon, more than 100 µM; in the assay with UACC-62 melanoma, more than 100 µM; in the assay on CCRF-CEM leukemia it was more than 86.1 µM. This molecule also showed a TGI in the assay on UACC-257 melanoma of more than 100 µM.

As for `Cc1[nH]c(C)c(CN(C)C)c1CN(C)C`, the TGI with SK-MEL-28 melanoma, in the assay on LOX IMVI melanoma, in the assay with MDA-MB-231 breast, in the assay with SK-OV-3 ovarian, with SW-620 colon and in the assay with U251 CNS was more than 100 µM in each case. For the same molecule, the TGI with DU-145 prostate, with KM12 colon, in the assay on MDA-N, in the assay on UACC-62 melanoma, with CCRF-CEM leukemia and in the assay with UACC-257 melanoma was more than 100 µM throughout.

Regarding `O=C=C=P(c1ccccc1)(c1ccccc1)c1ccccc1`, the TGI with HOP-18 NSCLC, with SK-MEL-28 melanoma, in the assay with LOX IMVI melanoma, in the assay on SK-OV-3 ovarian, with DLD-1 colon and in the assay on SW-620 colon was more than 100 µM each time. Besides, the TGI is more than 100 µM in the assay with U251 CNS; 83.6 µM in the assay on SNB-75 CNS; more than 100 µM in the assay with KM12 colon; more than 100 µM in the assay on CCRF-CEM leukemia; more than 100 µM in the assay with UACC-257 melanoma.
